{"source": "patent US7176234B2", "about": "“Derivatives of gambogic acid and analogs as activators of caspases and inducers of apoptosis” (priority 2002, dated 2007)", "key": {"[1]": {"experiment": "Conversion of methyl 9,10-dihydro-10-morpholinyl-gambogate to methyl gambogate in biological media (HPLC)", "assay_type": "physicochemical", "procedure": "A solution of methyl 9,10-dihydro-10-morpholinyl-gambogate in 87.5% RPMI 1640 biological Media (Invitrogen Corporation, Carlsbad, Calif.), 5.6% EtOH, 1.3% DMSO, and 5.6% Cremophor EL at a concentration of 5 mg/ml was stored at 37° C. The amount of methyl 9,10-dihydro-10-morpholinyl-gambogate (compound B) and methyl gambogate (compound C) was measured by integration of the peak area. The HPLC was run in the Beckman System Gold with 32 Karate software under the following conditions: […]"}, "[2]": {"test_system": "SW620 (colorectal cancer)", "experiment": "Efficacy in human tumor xenograft mouse model SW620", "assay_type": "in vivo, human tumor in CD1 nu/nu mice", "conditions": "75 mg/kg, every day, I.V.", "procedure": "(§1) CD1 nu/nu mice were used. Viable tumor bits of transplantable human xenografts approximately 50 mg of trocar or cultured human tumor cells (nx106 cells?) were implanted subcutaneously into the flank region of mice and tumors were allowed to grow to the desired average size of 100 mg. The mice were measured for tumor size and those within the accepted tumor range of 75–125 mg, were randomized into control and treatment groups with 8–9 mice per group. Treatment was initiated on these groups which have an average starting tumor size of 100 mg. The control group was injected with the vehicle used to dissolve the drug. Injections were I.V. via the tail vein. Tumor measurements were taken every other day along with weights of animals and all animals were observed daily for survival. Tumor size was calculated by the equation of: Tumor volume=(length×width^2)/2."}, "[3]": {"test_system": "human tumor xenograft models", "experiment": "Efficacy studies in human tumor xenograft models (text summary, model not named)", "assay_type": "in vivo, human tumor in nu/nu mice", "procedure": "as §1"}, "ICR (CD-1) mice": {"test_system": "ICR (CD-1) mice", "experiment": "Maximum tolerated dose (MTD) in mice, I.V.", "assay_type": "in vivo", "conditions": "mouse, in vivo", "procedure": "For acute toxicity studies, 3 ICR (CD-1) mice were used per each dose group. Animals were given a single bolus injection in the tail vein with approximately 100 μl volume of compound formulation or vehicle formulation. Mice body weights were measured daily along with daily observation for clinical abnormalities. The maximum tolerated dose (MTD) was defined as the dose that results in less than 10% decrease in body weight with no clinical abnormalities.\nFor multiple dose studies, the animals were dosed once a day for 5 days.\nTable IV summarizes the MTD of gambogic acid and methyl 9,10-dihydro-10-morpholinyl-gambogate in mice by I.V. administration."}, "[4]": {"experiment": "Pharmacokinetic studies in mice (plasma, LC/MS/MS)", "assay_type": "in vivo, ICR mice", "conditions": "mice, single I.V. dose 50 mg/kg", "procedure": "ICR mice were administered a single dose of drug into the tail vein. At each time point, 3 animals were sacrificed and the blood was withdrawn by cardiac puncture. The blood cells were spun down and the plasma was collected and frozen immediately in liquid nitrogen. For sample processing, the plasma was thawed and extraction solvent was added along with an internal standard to assess recoveries. The samples were vortexed followed by centrifugation, and the extraction solution was collected and subjected to LC/MS/MS analysis to identify and quantitate the compound plasma concentration. The levels of compound from the three animals at each time point were averaged and the pharmacokinetic parameters calculated using WinNonLin program. Table V summarized the major PK parameters."}, "MX-1 (Breast cancer)": {"test_system": "MX-1 (Breast cancer)", "experiment": "Efficacy in human tumor xenograft mouse model MX-1", "assay_type": "in vivo, human tumor in CD1 nu/nu mice", "conditions": "MX-1 xenograft, 50 mg/kg, every day, I.V.", "procedure": "as §1"}, "T-47D": {"test_system": "T-47D", "experiment": "Caspase cascade activation / apoptosis induction assay (N-(Ac-DEVD)-N'-ethoxycarbonyl-R110 substrate) in T-47D cells", "assay_type": "cell-based, Human", "conditions": "T47D cells", "procedure": "Human breast cancer cell lines T-47D and ZR-75-1 were grown according to media component mixtures designated by American Type Culture Collection+10% FCS (Invitrogen Corporation), in a 5% CO2-95% humidity incubator at 37° C. T-47D and ZR-75-1 cells were maintained at a cell density between 30 and 80% confluency and for HL-60 at a cell density of 0.1 to 0.6×10^6 cells/ml. Cells were harvested at 600×g and resuspended at 0.65×10^6 cells/mL into appropriate media+10% FCS. An aliquot of 45 μl of cells was added to a well of a 96-well microtiter plate containing 5 μl of a 10% DMSO in RPMI-1640 media solution containing 1.6 to 100 μM of gambogic acid or other test compound (0.16 to 10 μM final). An aliquot of 45 μl of cells was added to a well of a 96-well microtiter plate containing […] of a 10% DMSO in RPMI-1640 media solution without test compound as the control sample. The samples were mixed by agitation and then incubated at 37° C. for 24 h in a 5% CO2-95% humidity incubator. After incubation, the samples were removed from the incubator and 50 μl of a solution containing 20 μM of N-(Ac-DEVD)-N′-ethoxycarbonyl-R110 fluorogenic substrate SEQ ID NO:1 (Cytovia, Inc.; U.S. Pat. No. 6,335,429), 20% sucrose (Sigma), 20 mM DTT (Sigma), 200 mM NaCl (Sigma), 40 mM Na PIPES buffer pH 7.2 (Sigma), and 500 μg/mL lysolecithin (Calbiochem) was added. The samples were mixed by agitation and incubated at room temperature. Using a fluorescent plate reader (Model 1420 Wallac Instruments), an initial reading (T=0) was made approximately 1–2 min after addition of the substrate solution, employing excitation at 485 nm and emission at 530 nm, to determine the background fluorescence of the control sample. After approximately 3 h of incubation, the samples were read for fluorescence as above (T=3 h).\nThe Relative Fluorescence Unit values (RFU) were used to calculate the sample readings as follows: RFU(T=3h)−Control RFU(T=0)=Net RFU(T=3h)\nThe activity of caspase cascade activation was determined by the ratio of the net RFU value for derivatives of gambogic acid to that of control samples. The EC50 (nM) was determined by a sigmoidal dose-response calculation (Prism 2.0, GraphPad Software Inc.).\nMethyl 9,10-dihydro-10-morpholinyl-gambogate and gambogic acid were assayed as described in Example 28 in T47D cells. The samples of cells and testing compound were incubated for 5 h and 24 h, respectively. Table II summarizes the caspase activity (Ratio) and potency (EC50) of methyl 9,10-dihydro-10-morpholinyl-gambogate (compound B) in the 5 h and 24 h assays, in comparison with that of gambogic acid (compound A)."}}, "note": "Entries after “also recorded” stand apart in the source; their conditions may differ. Read-outs that look alike come from different tables or passages of the source.", "data": [{"smiles": "COC(=O)C(C)=CCC12OC(C)(C)C3CC(C1=O)C(N1CCOCC1)C1C(=O)c4c(O)c5c(c(CC=C(C)C)c4OC132)OC(C)(CCC=C(C)C)C=C5", "note": "(stereo not drawn) [B, Methyl 9,10-dihydro-10-morpholinyl-gambogate]", "values": [{"measurement": "Conversion to methyl gambogate (reversal of Michael addition) in biological media (in words)", "setting": "[1]; 37° C., RPMI biological media", "value": "reverse to methyl gambogate; also recorded: converted slowly"}, {"measurement": "Amount in biological media, 0 h", "setting": "[1]; solution of compound B 5 mg/ml in 87.5% RPMI 1640, 37° C., HPLC peak area, 0 h", "value": 92}, {"measurement": "Amount in biological media, 2 h", "setting": "[1]; solution of compound B 5 mg/ml in 87.5% RPMI 1640, 37° C., HPLC peak area, 2 h", "value": 92}, {"measurement": "Amount in biological media, 18 h", "setting": "[1]; solution of compound B 5 mg/ml in 87.5% RPMI 1640, 37° C., HPLC peak area, 18 h", "value": 72}, {"measurement": "Amount in biological media, 48 h", "setting": "[1]; solution of compound B 5 mg/ml in 87.5% RPMI 1640, 37° C., HPLC peak area, 48 h", "value": 49}, {"measurement": "Amount in biological media, 90 h", "setting": "[1]; solution of compound B 5 mg/ml in 87.5% RPMI 1640, 37° C., HPLC peak area, 90 h", "value": 28}, {"measurement": "% Tumor reduction", "setting": "[2]", "value": 58, "unit": "%"}, {"measurement": "Body weight loss / behavioral changes in efficacy studies", "setting": "[3]; several human tumor xenograft models", "value": "no significant body weight loss or abnormal behavioral changes"}, {"measurement": "Efficacy (in words)", "setting": "[3]; summary of Table VI, gambogic acid at its maximal tolerable dose", "value": "good efficacy"}, {"measurement": "Acute MTD", "setting": "ICR (CD-1) mice", "value": ">100", "unit": "mg/kg"}, {"measurement": "Injection site toxicity", "setting": "ICR (CD-1) mice", "value": "substantially reduced"}, {"measurement": "Multiple Dose MTD", "setting": "ICR (CD-1) mice; iv", "value": "Once a day, 5 doses: >100 mg/kg"}, {"measurement": "Systemic toxicity / tolerability (in words)", "setting": "ICR (CD-1) mice; iv", "value": "significantly less systemic toxicity than gambogic acid"}, {"measurement": "CL, Clearance", "setting": "[4]", "value": 2.33, "unit": "mL/min/kg"}, {"measurement": "T1/2, Terminal half-life", "setting": "[4]", "value": 27.6, "unit": "h"}, {"measurement": "Vss, Vol. of distribution", "setting": "[4]", "value": 2.12, "unit": "L/kg"}, {"measurement": "AUC (0-inf), Area under the curve", "setting": "[4]; plasma", "value": "353,021 ng-h/ml"}, {"measurement": "% Tumor reduction", "setting": "MX-1 (Breast cancer)", "value": 60, "unit": "%"}, {"measurement": "Activity in the caspase activation / apoptosis induction assay (in words), 5 h", "setting": "T-47D; 5 h assay", "value": "not active"}, {"measurement": "Caspase activity (Ratio), 5 h", "setting": "T-47D; 5 h assay", "value": 1.2}, {"measurement": "EC50", "setting": "T-47D; 5 h assay, read-out: Caspase potency EC50, 5 h", "value": "> 10", "unit": "µM"}, {"measurement": "Activity in the caspase activation / apoptosis induction assay (in words), 24 h", "setting": "T-47D; 24 h assay", "value": "active"}, {"measurement": "Caspase activity (Ratio), 24 h", "setting": "T-47D; 24 h assay", "value": 19}, {"measurement": "EC50", "setting": "T-47D; 24 h assay, read-out: Caspase potency EC50, 24 h", "value": 3.8, "unit": "µM"}]}]}
